What was measured:
pigweed = experiment: Test A pre-/postemergence herbicide test; assay type: in vivo, Amaranthus retroflexus
In short: (§1)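 Visual injury ratings, 0 = no effect, 100 = complete control, taken ~10 days after treatment against untreated greenhouse controls. Preemergence: directed soil spray onto seeded loam/sand pots. Postemergence: spray onto plants at one- to two-leaf stage, 2–10 cm tall.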

foxtail, giant = experiment: Test C pre-/postemergence herbicide test; assay type: in vivo, Setaria faberii
Text: (§2) Seeds of plant species selected from blackgrass (Alopecurus myosuroides), ryegrass, Italian (Italian ryegrass, Lolium multiflorum), wheat (winter wheat, Triticum aestivum), galium (catchweed bedstraw, Galium aparine), corn (Zea mays), crabgrass, large (large crabgrass, Digitaria sanguinalis), foxtail, giant (giant foxtail, Setaria faberii), johnsongrass (Sorghum halepense), lambsquarters (Chenopodium album), morningglory (Ipomoea coccinea), nutsedge, yellow (yellow nutsedge, Cyperus esculentus), pigweed (Amaranthus retroflexus), ragweed (common ragweed, Ambrosia elatior), soybean (Glycine max), barnyardgrass (Echinochloa crus-galli), oilseed rape (Brassica napus), waterhemp (common waterhemp, Amaranthus rudis), kochia (Kochia scoparia), oat, wild (wild oat, Avena fatua), surinam grass (Brachiaria decumbens), foxtail, green (green foxtail, Setaria viridis), goosegrass (Eleusine indica), bromegrass, downy (downy bromegrass, Bromus tectorum), nightshade (eastern black nightshade, Solanum ptycanthum), cocklebur (common cocklebur, Xanthium strumarium), cupgrass, woolly (woolly cupgrass, Eriochloa villosa), bermudagrass (Cynodon dactylon), sunflower, (common oilseed sunflower, Helianthus annuus), Russian thistle (Salsola kali) and velvetleaf (Abutilon theophrasti) were planted into a blend of loam soil and sand and treated preemergence with test chemicals formulated in a non-phytotoxic solvent mixture which included a surfactant. At the same time, plants selected from these crop and weed species and also barley (winter barley, Hordeum vulgare), […]), chickweed (common chickweed, Stellaria media), deadnettle (henbit deadnettle, Lamium amplexicaule), and canarygrass (littleseed canarygrass, Phalaris minor) were planted in pots containing Redi-Earth® planting medium (Scotts Company, 14111 Scottslawn Road, Marysville, Ohio 43041) comprising spaghnum peat moss, vermiculite, wetting agent and starter nutrients and treated with postemergence applications of test chemicals formulated in the same manner. Plants ranged in height from 2 to 18 cm (1- to 4-leaf stage) for postemergence treatments. Treated plants and controls were maintained in a greenhouse for 13 to 15 days, after which time all species were compared to controls and visually evaluated. Plant response ratings, summarized in Table C, are based on a scale of 0 to 100 where 0 is no effect and 100 is complete control. A dash (-) response means no test result.

corn [1] = experiment: Test C pre-/postemergence herbicide test; assay type: in vivo, Zea mays
Text: as §2

nutsedge, yellow = experiment: Test C pre-/postemergence herbicide test; assay type: in vivo, Cyperus esculentus
In short: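 Pre- and postemergence greenhouse screen. Preemergence treatment went onto freshly planted seeds in loam–sand soil; postemergence treatment went onto plants 2 to 18 cm tall at the 1- to 4-leaf stage in sphagnum peat/vermiculite medium. Scoring at 13 to 15 days used a 0–100 control scale.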

soybean = experiment: Test C pre-/postemergence herbicide test; assay type: in vivo, Glycine max
Text: as §2

oilseed rape = experiment: Test C pre-/postemergence herbicide test; assay type: in vivo, Brassica napus
Text: as §2

barnyardgrass [2] = experiment: Test C pre-/postemergence herbicide test; assay type: in vivo, Echinochloa crus-galli
Text: as §2

barnyardgrass [3] = experiment: Test A pre-/postemergence herbicide test; assay type: in vivo, Echinochloa crus-galli
In short: as §1

corn [4] = experiment: Test A pre-/postemergence herbicide test; assay type: in vivo, Zea mays; conditions: Postemergence
In short: as §1

[5] = 125 g ai/ha, visual rating, 0 to 100 scale, 0 no effect, 100 complete control, approximately 10 days, preemergence
[6] = Postemergence, 125 g ai/ha, 0 to 100 scale, 0 is no effect, 100 is complete control
[7] = preemergence, 500 g ai/ha, 0 to 100 scale, 0 is no effect and 100 is complete control
[8] = Preemergence, 31 g ai/ha, scale 0 to 100, 0 is no effect and 100 is complete control
[9] = Preemergence, 62 g ai/ha, scale 0 to 100 (0 no effect, 100 complete control)
[10] = Preemergence, 125 g ai/ha, scale 0 to 100 (0 no effect, 100 complete control)
[11] = 125 g ai/ha, 0 to 100 scale, 0 is no effect, 100 is complete control
[12] = Postemergence, 500 g ai/ha, 0 to 100 scale (0 no effect, 100 complete control)
[13] = Preemergence, 125 g ai/ha, 0 to 100 scale where 0 is no effect and 100 is complete control
[14] = Postemergence, 8 g ai/ha, scale 0 to 100 (0 no effect, 100 complete control)
[15] = Postemergence, 16 g ai/ha, scale 0 to 100 (0 no effect, 100 complete control)
[16] = Postemergence, 31 g ai/ha, scale 0 to 100 (0 no effect, 100 complete control)
[17] = Postemergence, 62 g ai/ha, scale 0 (no effect) to 100 (complete control)
[18] = Preemergence, 8 g ai/ha, scale 0 to 100
[19] = Preemergence, 16 g ai/ha, scale 0 to 100

O=C1NCC(c2cccc(C(F)F)c2)C1C(=O)Nc1cccc(F)c1F (racemic) [Compound 211]
20: Plant response rating, Pigweed (pigweed; [5])
10: Plant response rating (scale of 0 to 100), Nutsedge, Yellow (nutsedge, yellow; Preemergence, 250 g ai/ha)
25: Corn plant response rating (corn [1]; [9])
80: Plant response rating (scale of 0 to 100), Corn (corn [1]; Preemergence, 250 g ai/ha) | Plant response rating, Barnyardgrass (barnyardgrass [3]; [5])
0: Plant response rating, Pigweed (pigweed; [6]) | Foxtail, Giant plant response rating (foxtail, giant; [8]) | Corn plant response rating (corn [1]; [8]) | Plant response rating, Corn (corn [1]; [10]) | Nutsedge, Yellow plant response rating (nutsedge, yellow; [8]) | Nutsedge, Yellow plant response rating (nutsedge, yellow; [9]) | Plant response rating, Nutsedge, Yellow (nutsedge, yellow; [10]) | Soybean plant response rating (soybean; [8]) | Soybean plant response rating (soybean; [9]) | Plant response rating (scale of 0 to 100), Soybean (soybean; Preemergence, 250 g ai/ha) | Oilseed Rape plant response rating (oilseed rape; [8])
65: Plant response rating, Barnyardgrass (barnyardgrass [2]; Preemergence, 62 g ai/ha, scale 0 to 100)
70: Plant response rating, Pigweed (pigweed; [7]) | Foxtail, Giant plant response rating (foxtail, giant; [9]) | Corn plant response rating (0 to 100 scale, 0 is no effect, 100 is complete control) (corn [4]; 500 g ai/ha)
85: Plant response rating, Barnyardgrass (barnyardgrass [2]; [10])
95: Plant response rating (scale of 0 to 100), Foxtail, Giant (foxtail, giant; Preemergence, 250 g ai/ha)
35: Oilseed Rape plant response rating (oilseed rape; [9])
5: Plant response rating, Soybean (soybean; [10])
90: Plant response rating, Foxtail, Giant (foxtail, giant; [10]) | Plant response rating, Oilseed Rape (oilseed rape; [10]) | Plant response rating (scale of 0 to 100), Oilseed Rape (oilseed rape; Preemergence, 250 g ai/ha) | Plant response rating (scale of 0 to 100; 0 is no effect, 100 is complete control), Barnyardgrass (barnyardgrass [2]; Preemergence, 250 g ai/ha) | Plant response rating, Barnyardgrass (barnyardgrass [3]; [6]) | Barnyardgrass plant response rating (0 to 100 scale, 0 is no effect, 100 is complete control) (barnyardgrass [3]; Postemergence, 500 g ai/ha) | Plant response rating, Barnyardgrass (barnyardgrass [3]; [7])
50: Pigweed plant response rating (0 to 100 scale, 0 is no effect, 100 is complete control) (pigweed; Postemergence, 500 g ai/ha)
30: Barnyardgrass plant response rating (barnyardgrass [2]; [8]) | Plant response rating, Corn (corn [4]; [11])

CN1CC(c2ccc(F)cc2)C(C(=O)Nc2cccc(F)c2F)C1=O (centres unmarked) [Compound 271]
45: Plant response rating, Soybean (soybean; [15])
90: Foxtail, Giant plant response rating (foxtail, giant; [8]) | Barnyardgrass plant response rating (barnyardgrass [2]; [8]) | Plant response rating, Barnyardgrass (barnyardgrass [3]; [6]) | Plant response rating, Barnyardgrass (barnyardgrass [3]; [12]) | Plant response rating, Barnyardgrass (barnyardgrass [3]; [13]) | Plant response rating, Barnyardgrass (barnyardgrass [3]; [7])
40: Plant response rating, Pigweed (pigweed; [13])
20: Plant response rating, Pigweed (pigweed; [12]) | Plant response rating, Oilseed Rape (oilseed rape; [17]) | Oilseed Rape plant response rating (oilseed rape; [9]) | Plant response rating, Corn (corn [4]; [11])
80: Plant response rating, Pigweed (pigweed; [7])
98: Foxtail, Giant plant response rating (foxtail, giant; [9])
0: Plant response rating, Pigweed (pigweed; Postemergence, 125 g ai/ha, visual rating on 0 to 100 scale (0 no effect, 100 complete control), approx. 10 days) | Plant response rating, Foxtail, Giant (foxtail, giant; [14]) | Plant response rating, Foxtail, Giant (foxtail, giant; [15]) | Plant response rating, Foxtail, Giant (foxtail, giant; [16]) | Plant response rating, Foxtail, Giant (foxtail, giant; [17]) | Plant response rating, Corn (corn [1]; [14]) | Plant response rating, Corn (corn [1]; [15]) | Plant response rating, Corn (corn [1]; [16]) | Plant response rating, Corn (corn [1]; [17]) | Corn plant response rating (corn [1]; [8]) | Corn plant response rating (corn [1]; [9]) | Plant response rating, Corn (corn [1]; [18]) | Plant response rating, Corn (corn [1]; [19]) | Plant response rating, Nutsedge, Yellow (nutsedge, yellow; [14]) | Plant response rating, Nutsedge, Yellow (nutsedge, yellow; [15]) | Plant response rating, Nutsedge, Yellow (nutsedge, yellow; [16]) | Plant response rating, Nutsedge, Yellow (nutsedge, yellow; [17]) | Nutsedge, Yellow plant response rating (nutsedge, yellow; [8]) | Nutsedge, Yellow plant response rating (nutsedge, yellow; [9]) | Plant response rating, Nutsedge, Yellow (nutsedge, yellow; [18]) | Plant response rating, Nutsedge, Yellow (nutsedge, yellow; [19]) | Soybean plant response rating (soybean; [8]) | Soybean plant response rating (soybean; [9]) | Plant response rating, Soybean (soybean; [18]) | Plant response rating, Soybean (soybean; [19]) | Plant response rating, Oilseed Rape (oilseed rape; [14]) | Plant response rating, Oilseed Rape (oilseed rape; [15]) | Plant response rating, Oilseed Rape (oilseed rape; [16]) | Oilseed Rape plant response rating (oilseed rape; [8]) | Plant response rating, Oilseed Rape (oilseed rape; [18]) | Plant response rating, Oilseed Rape (oilseed rape; [19]) | Plant response rating, Barnyardgrass (barnyardgrass [2]; [14]) | Plant response rating, Barnyardgrass (barnyardgrass [2]; [15]) | Plant response rating, Barnyardgrass (barnyardgrass [2]; [16]) | Plant response rating, Barnyardgrass (barnyardgrass [2]; [17]) | Plant response rating, Barnyardgrass (barnyardgrass [2]; [18])
60: Plant response rating, Soybean (soybean; [17]) | Plant response rating, Corn (corn [4]; 500 g ai/ha, 0 to 100 scale (0 no effect, 100 complete control))
55: Plant response rating, Foxtail, Giant (foxtail, giant; [18])
95: Barnyardgrass plant response rating (barnyardgrass [2]; [9])
75: Plant response rating, Foxtail, Giant (foxtail, giant; [19]) | Plant response rating, Barnyardgrass (barnyardgrass [2]; [19])
15: Plant response rating, Soybean (soybean; [16])
5: Plant response rating, Soybean (soybean; [14])
